Laboratory results from the NIST ThermoML archive (doi:10.1016/j.jct.2014.03.023).

What was measured:
[1] = wn = mass fraction of the nth substance listed; conditions: Pendant drop shape
[2] = molar heat capacity at constant pressure; wn = mass fraction of the nth substance listed; conditions: 101 kPa, Liquid, Small sample (50 mg) DSC

CC[n+]1ccc(C)cc1.O=S(=O)([N-]S(=O)(=O)C(F)(F)F)C(F)(F)F + CCn1cc[n+](C)c1.N#CN=C=[N-]
Conditions	molar heat capacity at constant pressure, w2 = 0 [J/K/mol]	molar heat capacity at constant pressure, w2 = 0.25 [J/K/mol]	molar heat capacity at constant pressure, w2 = 0.5 [J/K/mol]	molar heat capacity at constant pressure, w2 = 0.75 [J/K/mol]	surface tension liquid-gas, w2 = 0 [mN/m]	surface tension liquid-gas, w2 = 0.25 [mN/m]	surface tension liquid-gas, w2 = 0.5 [mN/m]	surface tension liquid-gas, w2 = 0.75 [mN/m]
[1], 298.2 K	–	–	–	–	24.3	40.8	45.8	52
[1], 303.2 K	–	–	–	–	23.9	40.3	45.3	51.5
[1], 313.2 K	–	–	–	–	23.1	39.2	44.1	50.3
[1], 323.2 K	–	–	–	–	22.2	38	42.8	49
[2], 296.2 K	627	504	421	363	–	–	–	–
[2], 300.2 K	634	509	425	366	–	–	–	–
[2], 304.2 K	637	512	427	369	–	–	–	–
[2], 308.2 K	640	514	430	371	–	–	–	–
[2], 312.2 K	644	517	433	374	–	–	–	–
[2], 316.2 K	647	520	436	376	–	–	–	–
[2], 320.2 K	649	522	438	378	–	–	–	–
[2], 324.2 K	652	524	441	381	–	–	–	–
[2], 328.2 K	655	528	444	383	–	–	–	–
[2], 332.2 K	659	532	448	387	–	–	–	–
[2], 336.2 K	665	537	451	390	–	–	–	–
[2], 340.2 K	669	541	455	393	–	–	–	–
[2], 344.2 K	674	546	459	397	–	–	–	–
[2], 348.2 K	679	550	463	400	–	–	–	–
[2], 352.2 K	685	555	467	404	–	–	–	–
[2], 356.2 K	691	560	472	407	–	–	–	–
[2], 360.2 K	697	565	477	411	–	–	–	–
[2], 364.2 K	703	570	481	415	–	–	–	–
[2], 368.2 K	708	576	486	419	–	–	–	–
[2], 372.2 K	715	584	492	424	–	–	–	–
